Bounds are passed on as bounds.

8 compounds from ChEMBL document CHEMBL1153665, “Development of L-689,065 - the prototype of a new class of potent 5-lipoxygenase inhibitors” (Bioorg Med Chem Lett, 1992) can be followed below.

Data set [1] addresses T1, Arachidonate 5-lipoxygenase-activating protein (Homo sapiens, UniProt P20292).
T1 sequence (P20292 whole entry): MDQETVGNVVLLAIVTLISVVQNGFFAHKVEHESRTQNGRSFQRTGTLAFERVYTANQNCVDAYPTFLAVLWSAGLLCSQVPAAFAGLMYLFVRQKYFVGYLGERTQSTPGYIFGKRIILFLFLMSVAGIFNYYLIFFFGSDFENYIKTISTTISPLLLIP
In words: Compound was tested for its binding activity towards 5-lipoxygenase activating protein (FLAP).

Data set [2] concerns the target T2, Polyunsaturated fatty acid 5-lipoxygenase (Rattus norvegicus, UniProt P12527).
T2 sequence (P12527 whole entry): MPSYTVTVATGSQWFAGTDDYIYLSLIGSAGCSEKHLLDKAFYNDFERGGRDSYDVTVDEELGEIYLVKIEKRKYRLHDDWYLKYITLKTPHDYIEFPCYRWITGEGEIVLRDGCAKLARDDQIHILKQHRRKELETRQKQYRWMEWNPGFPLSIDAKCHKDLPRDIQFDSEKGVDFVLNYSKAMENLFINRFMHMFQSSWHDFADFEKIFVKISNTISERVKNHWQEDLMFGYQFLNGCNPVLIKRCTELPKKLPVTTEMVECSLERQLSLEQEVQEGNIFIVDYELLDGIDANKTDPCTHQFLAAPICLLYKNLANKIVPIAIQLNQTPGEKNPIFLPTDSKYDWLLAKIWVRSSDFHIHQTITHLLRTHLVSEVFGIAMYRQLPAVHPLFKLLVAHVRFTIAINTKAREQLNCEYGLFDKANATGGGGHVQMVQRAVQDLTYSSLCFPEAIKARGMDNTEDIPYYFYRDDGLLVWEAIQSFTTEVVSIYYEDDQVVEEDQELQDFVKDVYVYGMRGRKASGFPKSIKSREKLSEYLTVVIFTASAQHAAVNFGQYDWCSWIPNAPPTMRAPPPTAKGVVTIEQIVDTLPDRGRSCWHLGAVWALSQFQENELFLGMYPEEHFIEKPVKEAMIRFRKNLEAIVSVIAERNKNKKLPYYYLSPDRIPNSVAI
In words: Compound was tested for its inhibitory activity against 5-lipoxygenase in rat.

The nature of data set [3]: Maximum plasma concentration in rats when a oral dose of 200 mg/kg was given. As to conditions: rat. The format is ADME, organism-based. Set-up: dose 200 mg/kg, route oral.
In data set [4] the test system is Rattus norvegicus. Nature of the data set: Time to reach maximum concentration following oral administration of 200 mg/kg in rat; value ranges from 2-4. The format is ADME, organism-based. Further details: dose 200 mg/kg, route oral. The following applies: in vivo.
The subject of data set [5] is Rattus norvegicus. Nature of the data set: Compound was tested for inhibition of dyspnea at 0.5 mg/kg when administered perorally in rats. As to conditions: route oral. The class given is functional.

For orientation: IC50 means the point on the concentration scale where inhibition reaches its midpoint. Read a low IC50 as greater potency. On to `CC(C)(C)Sc1c(CC(C)(C)C(=O)O)n(Cc2ccc(Cl)cc2)c2ccc(OCc3ccc4ccccc4n3)cc12` [QUIFLAPON], for which the IC50 in data set [1] is 2.3 nM; in data set [2] it was over 2000 nM.
What is called Cmax is the highest concentration seen after dosing. A word on the inhibition in vivo: it is the percentage by which the read-out fell short of the control. Lower therefore signals a weak effect. In turn, `CC1Cc2c(OCc3ccc(-c4ccccc4)cn3)ccc3c2c(c(CC(C)(C)C(=O)O)n3Cc2ccc(Cl)cc2)S1` (racemic) came in with a Cmax in data set [3] of 5 µM. Also, the values for the 50% inhibitory concentration (IC50) in data set [1] and in data set [2] were 22000 nM and 60 nM, respectively. In the data set on Rattus norvegicus [4], this compound came in with a T max of 2 h. In the data set on Rattus norvegicus [5], this compound came in with an inhibition in vivo at 0.5 mg/kg of 55%.
Regarding `Cc1c(CC(C)(C)C(=O)O)n(Cc2ccc(Cl)cc2)c2ccc(OCc3ccc4ccccc4n3)cc12`, the half-inhibitory concentration (IC50) is 2.8 nM in data set [1] and over 5000 nM in data set [2].
The matching figures for `Cc1c(CC(C)(C)C(=O)O)n(Cc2ccc(Cl)cc2)c2ccc(OCc3ccc(-c4ccccc4)cn3)cc12`: 9.3 nM and 700 nM.
The matching figures for `CC1Cc2c(OCc3ccc4ccccc4n3)ccc3c2c(c(CC(C)(C)C(=O)O)n3Cc2ccc(Cl)cc2)S1` (centres undefined): 19 nM and 300 nM.
For `CC1Cc2c(OCc3ccc(-c4ccccc4)cn3)ccc3c2c(c(CC(C)(C)C(=O)O)n3Cc2ccc(Cl)cc2)S1` (single isomer, unassigned; (-)), in that order: over 10000 nM and 40 nM.
As to `CC1Cc2c(OCc3ccc(-c4ccccc4)cn3)ccc3c2c(c(CC(C)(C)C(=O)O)n3Cc2ccc(Cl)cc2)S1` (single isomer, unassigned; (+)), the concentration for half-maximal inhibition (IC50) in data set [1] was over 10000 nM; in data set [2], 150 nM.
`C=CCc1c(OCc2ccc3ccccc3n2)ccc2c1c(SC(C)(C)C)c(CC(C)(C)C(=O)O)n2Cc1ccc(Cl)cc1`: the 50% inhibitory concentration (IC50) in data set [1] is 27 nM; in data set [2], over 8000 nM.
